Values of other authors as cited in patent publication US8618300B2, “Indolizine inhibitors of leukotriene production” (Boehringer Ingelheim International GmbH, priority 2008, dated 2013).

How the values were obtained:
[1] = tested on: biomarkers for myocardial infarction risk; settings: clinical trials; cited from earlier work
human glomerulonephritis = settings: clinical trial; cited from earlier work
[2] = tested on: apoE/LDL-R double knockout mice; settings: oral dosing, high-fat diet from 2 months of age to 6 months; cited from earlier work
[3] = tested on: ApoE^−/−×CD4 dnTβRII mice; settings: infusion, treated for four weeks after 12 weeks plaque growth; cited from earlier work

Compound: O=C(O)[C@@H](c1ccc(OCc2ccc3ccccc3n2)cc1)C1CCCC1 [DG-031]
- effect on biomarkers for myocardial infarction risk [1]: dose-dependent suppression of biomarkers

Compound: CC(C)(C)Sc1c(CC(C)(C)C(=O)O)n(Cc2ccc(Cl)cc2)c2ccc(OCc3ccc4ccccc4n3)cc12 [MK-591]
- effect on proteinuria (human glomerulonephritis): useful for reducing proteinuria

Compound: CC(C)c1ccc2c(c1)c(SC(C)(C)C)c(CC(C)(C)C(=O)O)n2Cc1ccc(Cl)cc1 [MK-886]
- decrease in plaque coverage in the aorta [2]: 56%
- decrease in plaque coverage in the aortic root [2]: 43%
- decrease in plaque area in the aortic root [3]: ~40%
